Patent US20220339249A1, “COMPOSITE BIOMARKER FOR CANCER THERAPY” (Bristol-Myers Squibb Company, priority 2019, published 2022)

How the values were obtained:
[1] = target: TDO2 (Homo sapiens, UniProt P48775); details: cited from earlier work
[2] = monotherapy, every two weeks; MTD not reached; cited from earlier work
[3] = tested on: tumors; assay: Response to nivolumab monotherapy (CheckMate trials) by TDO2 expression; format: in vivo, human; details: immuno-oncology naïve patients
Description: TDO2 expression was determined by median. All tumors are […] from the biomarker cohort (Clinical Trial No. NCT02658890). Nivolumab monotherapy data is from CheckMate trials. NE=not evaluable; PD=progressive disease; PR=partial response; SCCHN=squamous cell carcinoma of the head and neck; SD=stable disease; TDO2=tryptophan 2,3-dioxygenase 2.
Therefore, the association between TDO2 expression and clinical response was evaluated. High or low TDO2 expression levels were determined by the median. Based on the objective response rate, 26% of patients with low TDO2 expression responded to treatment while only 13% of patients with high TDO2 expression responded to treatment (TABLE 4).

Sequence of TDO2 (P48775 whole entry): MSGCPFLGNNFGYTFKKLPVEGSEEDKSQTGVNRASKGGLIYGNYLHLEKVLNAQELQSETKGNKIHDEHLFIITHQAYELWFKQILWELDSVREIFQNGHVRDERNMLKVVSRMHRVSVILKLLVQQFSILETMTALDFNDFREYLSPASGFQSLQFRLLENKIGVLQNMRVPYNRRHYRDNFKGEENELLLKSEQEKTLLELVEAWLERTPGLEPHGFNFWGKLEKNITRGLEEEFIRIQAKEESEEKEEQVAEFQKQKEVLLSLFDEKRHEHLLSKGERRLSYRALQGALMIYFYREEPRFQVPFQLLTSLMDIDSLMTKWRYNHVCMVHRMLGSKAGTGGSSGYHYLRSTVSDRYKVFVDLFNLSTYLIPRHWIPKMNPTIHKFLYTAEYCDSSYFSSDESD

Compound | inhibition of TDO2 enzymatic activity [1] | maximum tolerated dose (MTD) [2] | association between TDO2 expression and response [3]
C[C@@H](C(=O)Nc1ccc(Cl)cc1)[C@H]1CC[C@@H](c2ccnc3ccc(F)cc32)CC1 [linrodostat, (2R)—N-(4-chlorophenyl)-2-(cis-4-(6-fluoroquinolin-4-yl)cyclohexyl)propanamide] | not TDO2 enzymatic activity |  | 
nivolumab |  | > 10 mg/kg | No association
